Values of other authors as cited in US20240408079A1, “COMPOSITIONS AND METHODS FOR THE TREATMENT OF CANCER” (THE TRANSLATIONAL GENOMICS RESEARCH INSTITUTE, priority 2021, published 2024).

Legend:
[1] = test system: EWS-FLI; conditions: preclinical studies
[2] = test system: ES cell lines; conditions: multiple ES cell lines
[3] = preclinical studies, in vivo

Molecule	transcriptional profiles driven by EWS-FLI [1]	tumorigenesis in vitro [1]	tissue culture cell viability [2]	antitumoral activity [3]
C/C(=N\NC(=O)c1cccc(S(=O)(=O)N2CCOCC2)c1)c1cc(Cl)ccc1O [SP-2509]	reverse the transcriptional profiles	significantly delay tumorigenesis	–	–
Seclidemstat [SP-2577]	reverse the transcriptional profiles	significantly delay tumorigenesis	ability to impair tissue culture cell viability	little antitumoral activity in vivo
